Assay results: the supplement of paper PMC11061612

Tests used:
[1] = tested on: BHT-101 (Thyroid Gland Carcinoma); assay: Bliss excess, mean over the matrix (fraction); higher = more synergy
In short: (§1)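 After 24 hours at 37°C and 5% CO2 in 1536-well plates, cells in DMEM/F12 or RPMI plus 10% FBS received two-drug dose matrices for 72 hours. Viability came from CellTiter-Glo 2.0 luminescence and was scaled as inhibition, anchored at 0 by vehicle wells and at 1 by blank wells. Combination Emax is taken as the second-highest inhibition in the matrix, and Bliss excess as the observed combination effect less EA + EB − EA·EB, with EA and EB the single-agent effects.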

[2] = tested on: MDA-MB-415 (Breast Carcinoma); assay: as above
In short: as §1

[3] = tested on: MOLT-13 (T-Lymphoblastic Leukemia); assay: as above
In short: as §1

[4] = tested on: AM-38 (Glioblastoma); assay: combination Emax (second highest fraction inhibited in the dose matrix, 72 h); higher = more inhibition; extreme values may be limits of the assay
In short: as §1

[5] = tested on: LCLC-103H (Non-Small Cell Lung Carcinoma); assay: as above
In short: as §1

[6] = tested on: MDA-MB-415 (Breast Carcinoma); assay: as above
In short: as §1

[7] = tested on: MM1S (Plasma Cell Myeloma); assay: as above
In short: as §1

[8] = tested on: NAMALWA (Burkitt's Lymphoma); assay: as above
In short: as §1

[9] = tested on: NB1 (Neuroblastoma); assay: as above
In short: as §1

[10] = tested on: NCI-H1876 (Small Cell Lung Carcinoma); assay: as above
In short: as §1

[11] = tested on: NCI-H1963 (Small Cell Lung Carcinoma); assay: as above
In short: as §1

[12] = tested on: P30-OHK (B-Lymphoblastic Leukemia); assay: as above
In short: as §1

[13] = tested on: PA-TU-8988T (Pancreatic Carcinoma); assay: as above
In short: as §1

[14] = tested on: RCC-JW (Kidney Carcinoma); assay: as above
In short: as §1

[15] = tested on: Raji (Burkitt's Lymphoma); assay: as above
In short: as §1

[16] = tested on: SNU-423 (Hepatocellular Carcinoma); assay: as above
In short: as §1

[17] = tested on: SNU-C2B (Colorectal Carcinoma); assay: as above
In short: as §1

[18] = tested on: UACC-257 (Melanoma); assay: as above
In short: as §1

[19] = tested on: WM35 (Melanoma); assay: as above
In short: as §1

[20] = tested on: ZR-75-30 (Breast Carcinoma); assay: as above
In short: as §1
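For Bliss excess, mean over the matrix in this document: after 72 h of two-drug dosing.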

| SMILES | Bliss excess [1] | Bliss excess [2] | Bliss excess [3] | combination Emax [4] | combination Emax [5] | combination Emax [6] | combination Emax [7] | combination Emax [8] | combination Emax [9] | combination Emax [10] | combination Emax [11] | combination Emax [12] | combination Emax [13] | combination Emax [14] | combination Emax [15] | combination Emax [16] | combination Emax [17] | combination Emax [18] | combination Emax [19] | combination Emax [20] |
| --- | --- | --- | --- | --- | --- | --- | --- | --- | --- | --- | --- | --- | --- | --- | --- | --- | --- | --- | --- | --- |
| COc1nnc2ccc(N3CCC(c4ccc(OCCN5CCN(C)C(=O)[C@H]5C)cc4)CC3)nn12 [AZD5153] + CCN(CCO)CCCOc1ccc2c(Nc3cc(CC(=O)Nc4cccc(F)c4)[nH]n3)ncnc2c1 [AZD2811] (first compound max 1 µM, 7x7, partner max 1 µM) | -0.0257 | -0.0346 | -0.008 | 0.433 | 0.511 | 0.502 | 0.635 | 0.748 | 0.556 | 0.708 | 0.882 | 1 | 0.695 | 0.3 | 0.558 | 0.507 | 0.581 | 0.372 | 0.534 | 0.313 |
| COc1nnc2ccc(N3CCC(c4ccc(OCCN5CCN(C)C(=O)[C@H]5C)cc4)CC3)nn12 [AZD5153] + C[C@@H]1COCCN1C2=NC(=NC(=C2)C3(CC3)[S@](=N)(=O)C)C4=C5C=CNC5=NC=C4 [AZD6738] (first compound max 1 µM, 7x7, partner max 10 µM) | -0.0166 | -0.0009 | 0.02 | 0.823 | 0.492 | 0.597 | 0.778 | 0.914 | 0.744 | 0.887 | 0.91 | 1 | 0.778 | 0.527 | 0.875 | 0.517 | 0.658 | 0.394 | 0.731 | 0.34 |
| COc1nnc2ccc(N3CCC(c4ccc(OCCN5CCN(C)C(=O)[C@H]5C)cc4)CC3)nn12 [AZD5153] + Cc1c2c(nn1C)CSCc1cc(n(C)n1)CSc1cc(c3ccccc3c1)OCCCc1c(C(=O)O)n(C)c3c-2c(Cl)ccc13 [AZD5991] (first compound max 1 µM, 7x7, partner max 1 µM) | 0.0167 | 0.031 | -0.0503 | 0.295 | 0.414 | 0.693 | 1 | 0.966 | 0.52 | 0.949 | 0.89 | 1 | 0.886 | 0.3 | 0.896 | 0.431 | 0.568 | 0.501 | 0.798 | 0.29 |
| COc1nnc2ccc(N3CCC(c4ccc(OCCN5CCN(C)C(=O)[C@H]5C)cc4)CC3)nn12 [AZD5153] + Cn1cnc2c(F)c(Nc3ccc(Br)cc3Cl)c(C(=O)NOCCO)cc21 [Selumetinib] (first compound max 1 µM, 7x7, partner max 10 µM) | -0.0593 | 0.0512 | 0.085 | 0.659 | 0.454 | 0.429 | 0.947 | 0.771 | 0.445 | 0.23 | 0.757 | 0.999 | 0.778 | 0.3 | 0.535 | 0.424 | 0.573 | 0.825 | 0.968 | 0.305 |
| Cc1c2c(nn1C)CSCc1cc(n(C)n1)CSc1cc(c3ccccc3c1)OCCCc1c(C(=O)O)n(C)c3c-2c(Cl)ccc13 [AZD5991] + C1CN(CCC1(C(=O)N[C@@H](CCO)C2=CC=C(C=C2)Cl)N)C3=NC=NC4=C3C=CN4 [Capivasertib] (first compound max 1 µM, 7x7, partner max 3 µM) | 0.0332 | 0.0144 | -0.0135 | 0.494 | 0.242 | 0.801 | 1 | 1 | 0.507 | 0.673 | 0.43 | 0.71 | 0.34 | 0.208 | 0.692 | 0.341 | 0.135 | 0.252 | 0.207 | 0.567 |
| Cc1c2c(nn1C)CSCc1cc(n(C)n1)CSc1cc(c3ccccc3c1)OCCCc1c(C(=O)O)n(C)c3c-2c(Cl)ccc13 [AZD5991] + C=CCn1c(=O)c2cnc(Nc3ccc(N4CCN(C)CC4)cc3)nc2n1-c1cccc(C(C)(C)O)n1 [AZD1775] (first compound max 1 µM, partner max 1 µM) | 0.0811 | 0.0011 | -0.0071 | 0.53 | 0.523 | 0.404 | 0.992 | 0.996 | 0.936 | 0.992 | 0.945 | 0.875 | 0.891 | 0.279 | 0.916 | 0.591 | 0.497 | 0.294 | 0.371 | 0.364 |
| Cc1c2c(nn1C)CSCc1cc(n(C)n1)CSc1cc(c3ccccc3c1)OCCCc1c(C(=O)O)n(C)c3c-2c(Cl)ccc13 [AZD5991] + CC1(C)CCC(CN2CCN(c3ccc(C(=O)NS(=O)(=O)c4ccc(NCC5CCOCC5)c([N+](=O)[O-])c4)c(Oc4cnc5[nH]ccc5c4)c3)CC2)=C(c2ccc(Cl)cc2)C1 [Venetoclax] (first compound max 1 µM, 7x7, partner max 1 µM) | 0.0146 | 0.0637 | 0.0266 | 0.597 | 0.145 | 0.73 | 0.99 | 0.994 | 0.535 | 0.881 | 0.824 | 0.996 | 0.151 | 0.23 | 0.682 | 0.144 | 0.201 | 0.308 | 0.243 | 0.779 |
| Cc1c2c(nn1C)CSCc1cc(n(C)n1)CSc1cc(c3ccccc3c1)OCCCc1c(C(=O)O)n(C)c3c-2c(Cl)ccc13 [AZD5991] + CCN(CCO)CCCOc1ccc2c(Nc3cc(CC(=O)Nc4cccc(F)c4)[nH]n3)ncnc2c1 [AZD2811] (first compound max 1 µM, 7x7, partner max 1 µM) | -0.0507 | -0.108 | 0.0028 | 0.32 | 0.371 | 0.56 | 0.982 | 0.98 | 0.694 | 0.998 | 0.842 | 0.963 | 0.775 | 0.251 | 0.776 | 0.335 | 0.17 | 0.322 | 0.243 | 0.511 |
| Cc1c2c(nn1C)CSCc1cc(n(C)n1)CSc1cc(c3ccccc3c1)OCCCc1c(C(=O)O)n(C)c3c-2c(Cl)ccc13 [AZD5991] + CN(C)CCCOc1ccc(-c2ccc3ncc4c(c3c2)n(C2CCOCC2)c(=O)n4C)cn1 [AZD0156] (first compound max 1 µM, 7x7, partner max 1 µM) | 0.0638 | -0.0183 | -0.0198 | 0.677 | 0.375 | 0.463 | 0.992 | 0.996 | 0.278 | 0.629 | 0.354 | 0.71 | 0.214 | 0.289 | 0.704 | 0.297 | 0.215 | 0.277 | 0.231 | 0.286 |
| Cc1c2c(nn1C)CSCc1cc(n(C)n1)CSc1cc(c3ccccc3c1)OCCCc1c(C(=O)O)n(C)c3c-2c(Cl)ccc13 [AZD5991] + C[C@@H]1COCCN1C2=NC(=NC(=C2)C3(CC3)[S@](=N)(=O)C)C4=C5C=CNC5=NC=C4 [AZD6738] (first compound max 1 µM, 7x7, partner max 10 µM) | 0.0666 | 0.0328 | 0.0186 | 0.771 | 0.531 | 0.554 | 1 | 0.997 | 0.931 | 0.97 | 0.885 | 0.996 | 0.345 | 0.547 | 0.974 | 0.471 | 0.49 | 0.252 | 0.343 | 0.429 |
| Cc1c2c(nn1C)CSCc1cc(n(C)n1)CSc1cc(c3ccccc3c1)OCCCc1c(C(=O)O)n(C)c3c-2c(Cl)ccc13 [AZD5991] + C[C@@H](Nc1cc(F)cc(F)c1)c1cc(C(=O)N(C)C)cc2c(=O)cc(N3CCOCC3)oc12 [AZD8186] (first compound max 1 µM, 7x7, partner max 3 µM) | 0.0094 | 0.0416 | -0.0116 | 0.436 | 0.352 | 0.931 | 0.958 | 0.986 | 0.26 | 0.711 | 0.437 | 0.805 | 0.45 | 0.461 | 0.749 | 0.431 | 0.177 | 0.28 | 0.307 | 0.528 |
| Cc1c2c(nn1C)CSCc1cc(n(C)n1)CSc1cc(c3ccccc3c1)OCCCc1c(C(=O)O)n(C)c3c-2c(Cl)ccc13 [AZD5991] + Cc1cc2ncnn2cc1Nc1ncc2c(n1)n(C1CCOCC1)c(=O)n2C [AZD7648] (first compound max 1 µM, 7x7, partner max 10 µM) | -0.0308 | -0.0924 | -0.0085 | 0.615 | 0.363 | 0.619 | 1 | 1 | 0.211 | 0.629 | 0.334 | 0.649 | 0.319 | 0.319 | 0.728 | 0.362 | 0.158 | 0.244 | 0.207 | 0.307 |
| Cc1c2c(nn1C)CSCc1cc(n(C)n1)CSc1cc(c3ccccc3c1)OCCCc1c(C(=O)O)n(C)c3c-2c(Cl)ccc13 [AZD5991] + Cn1cnc2c(F)c(Nc3ccc(Br)cc3Cl)c(C(=O)NOCCO)cc21 [Selumetinib] (first compound max 1 µM, 7x7, partner max 3 µM) | 0.0253 | -0.0419 | 0.0203 | 0.709 | 0.176 | 0.398 | 0.998 | 0.999 | 0.238 | 0.748 | 0.427 | 0.744 | 0.393 | 0.228 | 0.756 | 0.27 | 0.356 | 0.817 | 0.929 | 0.281 |
